Test results: ChEMBL document CHEMBL1201862, “PubChem BioAssay data set” (2004)
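Step 1: Grow cells in 96-well plates. Step 2: Expose to compound for 48 hours at 5 concentrations. Step 3: Interpolate endpoints linearly; if unreached, use highest concentration. Abbreviation: GI50, concentration required for 50% inhibition of growth.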 The source made the active and inactive calls. Rule as the data show it: active = GI50 up to about 1.1 µM and inactive = higher.

Assays:
Test in all cases: DTP human tumour cell line panel, 48 h
MOLT-4 = system: MOLT-4
A498 = system: A498
SNB-19 = system: SNB-19
OVCAR-8 = system: OVCAR-8
OVCAR-4 = system: OVCAR-4
SN12C = system: SN12C
HCT-116 = system: HCT-116
TK-10 = system: TK-10
786-0 = system: 786-0
MDA-MB-435 = system: MDA-MB-435
T47D = system: T47D
KM12 = system: KM12
SR = system: SR
HOP-62 = system: HOP-62
MDA-MB-231 = system: MDA-MB-231
MCF7 = system: MCF7
U-251 = system: U-251
CCRF-CEM = system: CCRF-CEM
HT-29 = system: HT-29
HOP-92 = system: HOP-92

Row | SMILES | GI50 (MOLT-4) | GI50 (A498) | GI50 (SNB-19) | GI50 (OVCAR-8) | GI50 (OVCAR-4) | GI50 (SN12C) | GI50 (HCT-116) | GI50 (TK-10) | GI50 (786-0) | GI50 (MDA-MB-435) | GI50 (T47D) | GI50 (KM12) | GI50 (SR) | GI50 (HOP-62) | GI50 (MDA-MB-231) | GI50 (MCF7) | GI50 (U-251) | GI50 (CCRF-CEM) | GI50 (HT-29) | GI50 (HOP-92)
1 | O/N=C1/Nc2cc(Cl)ccc2C(=S)N2CSCC12 (configuration not stated) | > 100 µM (inactive) | > 100 µM (inactive) | > 100 µM (inactive) | > 100 µM (inactive) | > 100 µM (inactive) | > 100 µM (inactive) | > 100 µM (inactive) | > 100 µM (inactive) | > 100 µM (inactive) | > 100 µM (inactive) | > 100 µM (inactive) | > 100 µM (inactive) | > 100 µM (inactive) | > 100 µM (inactive) | > 100 µM (inactive) | > 100 µM (inactive) | > 100 µM (inactive) | > 100 µM (inactive) | > 100 µM (inactive) | –
2 | Cc1nn(C(=O)c2ccc(Cl)cc2)c2c1C(c1ccc([N+](=O)[O-])cc1)SC(=N)N2 (configuration not stated) | > 10 µM (inactive) | – | > 10 µM (inactive) | > 10 µM (inactive) | > 10 µM (inactive) | > 10 µM (inactive) | > 10 µM (inactive) | > 10 µM (inactive) | > 10 µM (inactive) | > 10 µM (inactive) | > 10 µM (inactive) | > 10 µM (inactive) | > 10 µM (inactive) | > 10 µM (inactive) | > 10 µM (inactive) | > 10 µM (inactive) | > 10 µM (inactive) | > 10 µM (inactive) | > 10 µM (inactive) | > 10 µM (inactive)
3 | C=C[C@]1(C)CC[C@]2(C)C(CC[C@@]3(C)C2C[C@H](O)[C@H](O)[C@@]3(C)O)C1 (some centres not stated) | > 100 µM (inactive) | > 100 µM (inactive) | > 100 µM (inactive) | > 100 µM (inactive) | – | > 100 µM (inactive) | > 100 µM (inactive) | > 100 µM (inactive) | > 100 µM (inactive) | > 100 µM (inactive) | > 100 µM (inactive) | > 100 µM (inactive) | > 100 µM (inactive) | > 100 µM (inactive) | > 100 µM (inactive) | > 100 µM (inactive) | > 100 µM (inactive) | > 100 µM (inactive) | > 100 µM (inactive) | –
4 | CC(C)(C)OC(=O)N/C(C=O)=C\C1CCCCC1 | 14.8 µM (inactive) | – | 25.1 µM (inactive) | 16.3 µM (inactive) | 23.1 µM (inactive) | 19.3 µM (inactive) | 16.3 µM (inactive) | 17.7 µM (inactive) | 19.9 µM (inactive) | 20 µM (inactive) | 24.6 µM (inactive) | 24.4 µM (inactive) | 17.3 µM (inactive) | 21 µM (inactive) | 19.5 µM (inactive) | 25.6 µM (inactive) | 17.2 µM (inactive) | 29.6 µM (inactive) | 27.2 µM (inactive) | –
5 | Cc1ccc(-c2nc(N/N=C/C=C/c3ccccc3)c3ccccc3n2)cc1 | > 100 µM (inactive) | – | 37.6 µM (inactive) | 44.2 µM (inactive) | 50.5 µM (inactive) | 24.8 µM (inactive) | 26.6 µM (inactive) | 20 µM (inactive) | 30 µM (inactive) | 52 µM (inactive) | 60.5 µM (inactive) | 54 µM (inactive) | > 100 µM (inactive) | 64.4 µM (inactive) | 16.6 µM (inactive) | 14 µM (inactive) | 33.3 µM (inactive) | > 100 µM (inactive) | 32.8 µM (inactive) | 31.3 µM (inactive)
6 | O=C(CC(=O)N1N=C(N(c2ccccc2)c2ccccc2)CC1c1ccccc1)Nc1ccccc1 (configuration not stated) | 7.31 µM (inactive) | – | 78 µM (inactive) | > 100 µM (inactive) | > 100 µM (inactive) | – | > 100 µM (inactive) | > 100 µM (inactive) | 81.7 µM (inactive) | > 100 µM (inactive) | > 100 µM (inactive) | > 100 µM (inactive) | 37.7 µM (inactive) | 48.5 µM (inactive) | 7.82 µM (inactive) | > 100 µM (inactive) | 56.6 µM (inactive) | > 100 µM (inactive) | > 100 µM (inactive) | > 100 µM (inactive)
7 | OCCCCCCCCCCCOc1ccc(C2OCC3(CC=CCC3)CO2)cc1 (configuration not stated) | 34.2 µM (inactive) | – | 19.9 µM (inactive) | 17.2 µM (inactive) | 15.7 µM (inactive) | 15 µM (inactive) | 15.8 µM (inactive) | 16.9 µM (inactive) | 13.8 µM (inactive) | 17.9 µM (inactive) | 13.3 µM (inactive) | 13 µM (inactive) | 0.43 µM (active) | 14.4 µM (inactive) | 16.9 µM (inactive) | 4.88 µM (inactive) | 13.9 µM (inactive) | 11 µM (inactive) | 3.85 µM (inactive) | 16.9 µM (inactive)
8 | CC1(C)C2CCC(CN)(C2)C1N (configuration not stated) | > 100 µM (inactive) | > 100 µM (inactive) | > 100 µM (inactive) | > 100 µM (inactive) | > 100 µM (inactive) | > 100 µM (inactive) | > 100 µM (inactive) | > 100 µM (inactive) | > 100 µM (inactive) | > 100 µM (inactive) | > 100 µM (inactive) | > 100 µM (inactive) | – | > 100 µM (inactive) | > 100 µM (inactive) | > 100 µM (inactive) | > 100 µM (inactive) | > 100 µM (inactive) | > 100 µM (inactive) | > 100 µM (inactive)
9 | CCCCC(/C=C\COC1CCCCO1)=C/C(=O)OCC (configuration not stated) | 25.1 µM (inactive) | > 100 µM (inactive) | 98.2 µM (inactive) | 94.4 µM (inactive) | 61.2 µM (inactive) | 57.4 µM (inactive) | 28.6 µM (inactive) | > 100 µM (inactive) | 65.2 µM (inactive) | > 100 µM (inactive) | 55.3 µM (inactive) | 46.6 µM (inactive) | 32.6 µM (inactive) | > 100 µM (inactive) | > 100 µM (inactive) | 46.9 µM (inactive) | 44.8 µM (inactive) | 33.8 µM (inactive) | 38.4 µM (inactive) | –
10 | CN1C(=O)C2CCCC(=O)N2c2cccnc21 (configuration not stated) | > 100 µM (inactive) | – | > 100 µM (inactive) | > 100 µM (inactive) | > 100 µM (inactive) | > 100 µM (inactive) | > 100 µM (inactive) | > 100 µM (inactive) | > 100 µM (inactive) | > 100 µM (inactive) | > 100 µM (inactive) | > 100 µM (inactive) | > 100 µM (inactive) | > 100 µM (inactive) | > 100 µM (inactive) | > 100 µM (inactive) | > 100 µM (inactive) | > 100 µM (inactive) | > 100 µM (inactive) | –
11 | Cc1ccc(C(=O)/C=C(\O)C(=O)NC23CC4CC(CC(C4)C2)C3)cc1 | 3.86 µM (inactive) | – | – | > 10 µM (inactive) | > 10 µM (inactive) | 7.59 µM (inactive) | – | > 10 µM (inactive) | > 10 µM (inactive) | > 10 µM (inactive) | > 10 µM (inactive) | > 10 µM (inactive) | 3.62 µM (inactive) | 6.7 µM (inactive) | 8.71 µM (inactive) | 7.41 µM (inactive) | – | 5.92 µM (inactive) | > 10 µM (inactive) | > 10 µM (inactive)
